From patent EP2857388A1, “Azoles containing sulfone” (Grünenthal GmbH, priority 2013, dated 2015)

Target: T1, human B1R (Homo sapiens, UniProt P46663)
T1 construct: expressed in transfected cells; host or cells: CHO K1 cells (Chinese Hamster Ovary), stably transfected
T1 sequence (P46663 1-353): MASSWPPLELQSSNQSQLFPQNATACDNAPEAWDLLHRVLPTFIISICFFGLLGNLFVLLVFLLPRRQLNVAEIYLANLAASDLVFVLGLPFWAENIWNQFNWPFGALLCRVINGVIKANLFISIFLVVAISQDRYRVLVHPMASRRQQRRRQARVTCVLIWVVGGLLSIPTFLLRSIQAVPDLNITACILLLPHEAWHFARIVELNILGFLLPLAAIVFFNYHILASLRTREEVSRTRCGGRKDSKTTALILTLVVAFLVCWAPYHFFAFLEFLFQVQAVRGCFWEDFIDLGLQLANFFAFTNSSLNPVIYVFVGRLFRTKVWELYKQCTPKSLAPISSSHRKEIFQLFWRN
Test: Functional assay at bradykinin receptor 1 (B1R): Ca2+ fluorescence (Fluo-4) in FLIPR/Novostar, antagonist mode
Assay type: cell-based
Settings: test substance 10 µM, CHO K1 cells stably transfected with human B1R gene (hB1R-Zellen), agonist Lys-Des-Arg9-Bradykinin at EC80, % inhibition relative to maximal achievable inhibition; for inhibition at 10 µM: read-out: % Inhibierung (human B1R) bei 10 µM
Outline: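 CHO K1 cells stably expressing human B1R were loaded with Fluo-4 and preincubated 6–20 min with test compound before Lys-Des-Arg9-bradykinin at its EC80. Peak fluorescence (ex 488/em 540 nm) gave % inhibition versus maximal inhibition; IC50 from several concentrations, n=2 or 3.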

| inhibition at 10 µM [%] | % Inhibierung (human B1R) bei 10 µM [%] | Molecule |
| --- | --- | --- |
| 100 |  | COc1cc(C)c(S(=O)(=O)Cc2noc(C(=O)N3CC4(CCN(c5ccncc5)CC4)C3)n2)c(C)c1 [SC-02, [3-[[(4-Methoxy-2,6-dimethyl-phenyl)sulfonyl]-methyl]-[1,2,4]oxadiazol-5-yl]-(7-pyridin-4-yl-2,7-diazaspiro[3.5]nonan-2-yl)-methanon] |
| 50 |  | COc1cc(C)c(S(=O)(=O)Cc2cc(C)n(CC(=O)NC3CCN(C(C)=O)CC3(C)C)n2)c(C)c1 (stereo not drawn) [CC-159, N-(1-Acetyl-3,3-dimethyl-piperidin-4-yl)-2-[3-[[(4-methoxy-2,6-dimethyl-phenyl)sulfonyl]-methyl]-5-methyl-1 H-pyrazol-1-yl]-acetamid] |
| 100 |  | COc1cc(C)c(S(=O)(=O)Cc2nnc(C(=O)N3CCC(CN4CCN(C)CC4)C3)o2)c(C)c1 (stereo not drawn) [SC-86, [5-[[(4-Methoxy-2,6-dimethyl-phenyl)sulfonyl]-methyl]-[1,3,4]oxadiazol-2-yl]-[3-[(4-methyl-piperazin-1-yl)-methyl]-pyrrolidin-1-yl]-methanon] |
| 100 |  | COc1cc(C)c(S(=O)(=O)Cc2noc(CC(=O)NC3CCN(c4ccncc4)CC3(C)C)n2)c(C)c1 (stereo not drawn) [SC-14, N-(3,3-Dimethyl-1-pyridin-4-yl-piperidin-4-yl)-2-[3-[[(4-methoxy-2,6-dimethyl-phenyl)sulfonyl]-methyl]-[1,2,4]oxadiazol-5-yl]-acetamid] |
| 100 |  | COc1cc(C)c(S(=O)(=O)Cc2nc(CC(=O)NC3CCC(N4CCCC4)CC3)no2)c(C)c1 (stereo not drawn) [CC-32, 2-[5-[[(4-Methoxy-2,6-dimethyl-phenyl)sulfonyl]-methyl]-[1,2,4]oxadiazol-3-yl]-N-(4-pyrrolidin-1-yl-cyclohexyl)-acetamid] |
| 57 |  | COc1cc(C)c(S(=O)(=O)Cc2cc(C)n(CC(=O)NC3CCN(C)CC3(C)C)n2)c(C)c1 (stereo not drawn) [CC-188, 2-[3-[[(4-Methoxy-2,6-dimethyl-phenyl)sulfonyl]-methyl]-5-methyl-1H-pyrazol-1-yl]-N-(1,3,3-trimethyl-piperidin-4-yl)-acetamid] |
| 100 |  | COc1cc(C)c(S(=O)(=O)Cc2noc(C(=O)N3CCN(Cc4ccc(OC)nc4)CC3)n2)c(C)c1 [SC-59, [3-[[(4-Methoxy-2,6-dimethyl-phenyl)sulfonyl]-methyl]-[1,2,4]oxadiazol-5-yl]-[4-[(6-methoxy-pyridin-3-yl)-methyl]-piperazin-1-yl]-methanon] |
| 100 |  | COc1cc(C)c(S(=O)(=O)Cc2c(C)nn(CC(=O)N(C)[C@H]3CCC[C@@H](N4CCN(C)CC4)C3)c2C)c(C)c1 [SC-83, 2-[4-[[(4-Methoxy-2,6-dimethyl-phenyl)sulfonyl]-methyl]-3,5-dimethyl-1H-pyrazol-1-yl]-N-methyl-N-[(1S,3R)-3-(4-methyl-piperazin-1-yl)-cyclohexyl]-acetamid] |
| 95 |  | Cc1cccc(Cl)c1S(=O)(=O)Cc1noc(C(=O)N2CCC(N3CCN(C)CC3)CC2)n1 [CC-138, [3-[[(2-Chlor-6-methyl-phenyl)sulfonyl]-methyl]-[1,2,4]oxadiazol-5-yl]-[4-(4-methyl-piperazin-1-yl)-piperidin-1-yl]-methanon] |
| 99 |  | Cc1cccc(Cl)c1S(=O)(=O)Cc1noc(C(=O)N(C)[C@H]2CCC[C@@H](N3CCN(C)CC3)C2)n1 [SC-49, 3-[[(2-Chlor-6-methyl-phenyl)sulfonyl]-methyl]-N-methyl-N-[(1S,3R)-3-(4-methyl-piperazin-1-yl)-cyclohexyl]-[1,2,4]oxadiazol-5-carbonsäure amid] |
| 99 |  | COc1cc(C)c(S(=O)(=O)Cc2noc(C(=O)NC3CCC(N4CCN(C)CC4)CC3(C)C)n2)c(C)c1 (stereo not drawn) [SC-16, N-[2,2-Dimethyl-4-(4-methyl-piperazin-1-yl)-cyclohexyl]-3-[[(4-methoxy-2,6-dimethyl-phenyl)-sulfonyl]-methyl]-[1,2,4]oxadiazol-5-carbonsäure amid] |
| 100 |  | COc1cc(C)c(S(=O)(=O)Cc2noc(CC(=O)N(C)C3CCC4(CCN(C)CC4)CC3(C)C)n2)c(C)c1 (stereo not drawn) [SC-33, 2-[3-[[(4-Methoxy-2,6-dimethyl-phenyl)sulfonyl]-methyl]-[1,2,4]oxadiazol-5-yl]-N-methyl-N-(4,4,9-trimethyl-9-azaspiro[5.5]undecan-3-yl)-acetamid] |
| 100 |  | COc1cc(C)c(S(=O)(=O)Cc2cn(CC(=O)NC3CCC(N4CCN(C)CC4)CC3(C)C)nn2)c(C)c1 (stereo not drawn) [CC-162, N-[2,2-Dimethyl-4-(4-methyl-piperazin-1-yl)-cyclohexyl]-2-[4-[[(4-methoxy-2,6-dimethylphenyl)sulfonyl]-methyl]-1H-[1,2,3]triazol-1-yl]-acetamid] |
| 98 |  | COc1cc(C)c(S(=O)(=O)Cc2noc(C(=O)N(C)C3CCN(c4ccncc4F)CC3)n2)c(C)c1 [SC-82, N-[1-(3-Fluor-pyridin-4-yl)-piperidin-4-yl]-3-[[(4-methoxy-2,6-dimethyl-phenyl)sulfonyl]-methyl]-N-methyl-[1,2,4]oxadiazol-5-carbonsäure amid] |
| 92 |  | COc1cc(C)c(S(=O)(=O)Cc2noc(CC(=O)N3CCC(Cc4ccncc4)CC3(C)C)n2)c(C)c1 (stereo not drawn) [CC-153, 1-[2,2-Dimethyl-4-(pyridin-4-yl-methyl)-piperidin-1-yl]-2-[3-[[(4-methoxy-2,6-dimethyl-phenyl)-sulfonyl]-methyl]-[1,2,4]oxadiazol-5-yl]-ethanon] |
|  | 100 | N-[1-(4-Fluor-cyclohexyl)-3,3-dimethyl-piperidin-4-yl]-2-[3-[[(4-methoxy-2,6-dimethyl-phenyl)sulfonyl]-methyl]-[1,2,4]oxadiazol-5-yl]-acetamid [SC-48] |
| 61 |  | COCCN1CCC(NC(=O)Cn2nc(CS(=O)(=O)c3c(C)cc(OC)cc3C)cc2C)C(C)(C)C1 (stereo not drawn) [CC-157, 2-[3-[[(4-Methoxy-2,6-dimethyl-phenyl)sulfonyl]-methyl]-5-methyl-1H-pyrazol-1-yl]-N-[1-(2-methoxy-ethyl)-3,3-dimethyl-piperidin-4-yl]-acetamid] |
| 82 |  | CC1(C)CC(N2CCCC2)CCC1NC(=O)Cc1nc(CS(=O)(=O)c2cccc(Cl)c2Cl)no1 (stereo not drawn) [CC-106, 2-[3-[[(2,3-Dichlor-phenyl)sulfonyl]-methyl]-[1,2,4]oxadiazol-5-yl]-N-(2,2-dimethyl-4-pyrrolidin-1-yl-cyclohexyl)-acetamid] |

| Molecule | inhibition at 10 µM [%] | % Inhibierung (human B1R) bei 10 µM [%] |
| --- | --- | --- |
| Cc1cccc(Cl)c1S(=O)(=O)Cc1noc(CC(=O)NC2CCNCC2)n1 [CC-90, 2-[3-[[(2-Chlor-6-methyl-phenyl)sulfonyl]-methyl]-[1,2,4]oxadiazol-5-yl]-N-piperidin-4-yl-acetamid] | 72 |  |
| COc1cc(C)c(S(=O)(=O)Cc2noc(C(=O)N3[C@@H]4CC[C@H]3CC(Oc3ccncc3)C4)n2)c(C)c1 (stereo partly drawn) [CC-149, [3-[[(4-Methoxy-2,6-dimethyl-phenyl)sulfonyl]-methyl]-[1,2,4]oxadiazol-5-yl]-[(1S,5R)-3-pyridin-4-yloxy-8-azabicyclo[3.2.1]octan-8-yl]-methanon] | 100 |  |
| CN(C)C1CCC(NC(=O)Cc2nc(CS(=O)(=O)c3ccc(Cl)c(Cl)c3)no2)CC1 (stereo not drawn) [CC-50, 2-[3-[[(3,4-Dichlorphenyl)sulfonyl]-methyl]-[1,2,4]oxadiazol-5-yl]-N-(4-dimethylamino-cyclohexyl)-acetamid] | 54 |  |
